Reference: ChEMBL document CHEMBL3991601, “The target landscape of clinical kinase drugs” (Science, 2017)
Active and inactive are the calls of the source. On the calls: in the data inactive means no Kd found up to 30 µM.

Legend:
[1] = target: T1, Long-chain-fatty-acid--CoA ligase 5 (Homo sapiens, UniProt Q9ULC5)
T1 sequence (Q9ULC5 whole entry): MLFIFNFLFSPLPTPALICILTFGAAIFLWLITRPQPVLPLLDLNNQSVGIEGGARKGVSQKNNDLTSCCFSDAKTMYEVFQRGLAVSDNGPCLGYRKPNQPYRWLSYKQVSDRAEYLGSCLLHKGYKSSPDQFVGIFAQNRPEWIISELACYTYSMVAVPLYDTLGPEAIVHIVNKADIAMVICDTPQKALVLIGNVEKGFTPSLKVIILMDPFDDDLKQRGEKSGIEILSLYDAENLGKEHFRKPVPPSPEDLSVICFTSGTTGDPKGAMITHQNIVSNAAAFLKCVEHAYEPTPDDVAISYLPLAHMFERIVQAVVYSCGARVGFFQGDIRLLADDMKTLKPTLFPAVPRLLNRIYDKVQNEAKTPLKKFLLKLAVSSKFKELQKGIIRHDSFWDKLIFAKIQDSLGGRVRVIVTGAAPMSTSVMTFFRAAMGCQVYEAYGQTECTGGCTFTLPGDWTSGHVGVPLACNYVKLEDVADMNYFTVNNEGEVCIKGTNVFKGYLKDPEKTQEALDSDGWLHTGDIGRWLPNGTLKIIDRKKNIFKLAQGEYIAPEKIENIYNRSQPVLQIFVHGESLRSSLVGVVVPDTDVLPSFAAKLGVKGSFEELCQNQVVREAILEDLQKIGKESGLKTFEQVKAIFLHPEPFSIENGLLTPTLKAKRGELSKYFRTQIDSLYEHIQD

[2] = target: Uncharacterized aarF domain-containing protein kinase 5 (Homo sapiens, UniProt Q3MIX3)
[3] = target: Serine/threonine-protein kinase ATR (Homo sapiens, UniProt Q13535)
[4] = target: T2, Isoleucine--tRNA ligase, mitochondrial (Homo sapiens, UniProt Q9NSE4)
T2 sequence (Q9NSE4 whole entry): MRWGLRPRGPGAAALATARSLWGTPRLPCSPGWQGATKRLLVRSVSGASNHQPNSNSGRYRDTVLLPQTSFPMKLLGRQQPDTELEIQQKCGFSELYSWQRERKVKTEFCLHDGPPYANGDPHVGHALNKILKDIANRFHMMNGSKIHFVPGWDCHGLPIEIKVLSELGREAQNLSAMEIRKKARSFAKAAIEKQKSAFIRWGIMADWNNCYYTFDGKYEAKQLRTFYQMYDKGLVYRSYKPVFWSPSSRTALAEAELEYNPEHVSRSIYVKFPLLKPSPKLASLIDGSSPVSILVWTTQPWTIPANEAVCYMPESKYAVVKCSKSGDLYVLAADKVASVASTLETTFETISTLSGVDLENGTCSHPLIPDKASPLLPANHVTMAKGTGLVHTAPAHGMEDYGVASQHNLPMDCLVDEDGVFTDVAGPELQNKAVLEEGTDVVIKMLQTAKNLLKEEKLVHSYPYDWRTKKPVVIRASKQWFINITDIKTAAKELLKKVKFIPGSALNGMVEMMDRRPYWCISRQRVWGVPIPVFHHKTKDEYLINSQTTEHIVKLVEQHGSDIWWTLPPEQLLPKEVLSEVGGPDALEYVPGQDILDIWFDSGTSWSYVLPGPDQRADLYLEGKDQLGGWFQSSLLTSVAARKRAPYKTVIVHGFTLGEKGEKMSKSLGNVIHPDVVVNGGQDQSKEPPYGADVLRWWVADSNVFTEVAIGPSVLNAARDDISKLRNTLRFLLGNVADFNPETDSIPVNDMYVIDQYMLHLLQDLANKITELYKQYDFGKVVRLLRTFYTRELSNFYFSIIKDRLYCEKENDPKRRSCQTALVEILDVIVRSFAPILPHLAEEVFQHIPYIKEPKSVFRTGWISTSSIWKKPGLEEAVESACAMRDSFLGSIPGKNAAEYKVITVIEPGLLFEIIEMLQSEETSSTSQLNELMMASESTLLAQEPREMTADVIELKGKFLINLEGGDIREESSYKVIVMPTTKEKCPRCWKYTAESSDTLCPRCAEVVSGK

[5] = target: MAP kinase-activated protein kinase 3 (Homo sapiens, UniProt Q16644)
[6] = target: Choline-phosphate cytidylyltransferase A (Homo sapiens, UniProt P49585)
[7] = target: Serine/threonine-protein kinase N3 (Homo sapiens, UniProt Q6P5Z2)
[8] = target: Serine/threonine-protein kinase PLK1 (Homo sapiens, UniProt P53350)
[9] = target: Dual specificity testis-specific protein kinase 2 (Homo sapiens, UniProt Q96S53)
[10] = target: Dual specificity protein kinase CLK3 (Homo sapiens, UniProt P49761); type: subcellular, K-562, COLO 205, SK-N-BE(2) and MV-4-11, Cell lysate; details: read-out: Kd apparent
Sequence of Dual specificity protein kinase CLK3 (P49761 whole entry): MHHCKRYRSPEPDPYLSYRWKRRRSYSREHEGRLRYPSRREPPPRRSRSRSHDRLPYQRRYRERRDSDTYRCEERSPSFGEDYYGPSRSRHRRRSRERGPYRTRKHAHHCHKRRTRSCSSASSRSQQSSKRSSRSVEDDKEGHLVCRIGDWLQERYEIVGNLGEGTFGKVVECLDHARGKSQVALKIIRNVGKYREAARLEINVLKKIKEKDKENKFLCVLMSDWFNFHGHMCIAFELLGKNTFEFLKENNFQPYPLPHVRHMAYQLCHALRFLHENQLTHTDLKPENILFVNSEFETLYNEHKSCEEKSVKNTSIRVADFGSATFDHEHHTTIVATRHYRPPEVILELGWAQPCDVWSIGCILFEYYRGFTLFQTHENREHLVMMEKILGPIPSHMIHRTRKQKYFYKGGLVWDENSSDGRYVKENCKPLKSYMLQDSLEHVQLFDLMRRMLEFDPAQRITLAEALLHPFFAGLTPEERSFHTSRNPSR

Sequence of Choline-phosphate cytidylyltransferase A (P49585 whole entry): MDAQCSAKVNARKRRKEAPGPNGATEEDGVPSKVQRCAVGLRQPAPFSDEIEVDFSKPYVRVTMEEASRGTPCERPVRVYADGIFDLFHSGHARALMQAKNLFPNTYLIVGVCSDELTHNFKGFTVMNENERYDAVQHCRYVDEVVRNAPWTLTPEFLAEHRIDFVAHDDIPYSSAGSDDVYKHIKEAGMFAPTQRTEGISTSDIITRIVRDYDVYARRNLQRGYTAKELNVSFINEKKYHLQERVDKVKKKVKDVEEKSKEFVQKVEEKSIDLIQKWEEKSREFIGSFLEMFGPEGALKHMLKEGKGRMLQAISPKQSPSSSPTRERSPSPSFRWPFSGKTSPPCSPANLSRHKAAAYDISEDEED
Sequence of Serine/threonine-protein kinase N3 (Q6P5Z2 whole entry): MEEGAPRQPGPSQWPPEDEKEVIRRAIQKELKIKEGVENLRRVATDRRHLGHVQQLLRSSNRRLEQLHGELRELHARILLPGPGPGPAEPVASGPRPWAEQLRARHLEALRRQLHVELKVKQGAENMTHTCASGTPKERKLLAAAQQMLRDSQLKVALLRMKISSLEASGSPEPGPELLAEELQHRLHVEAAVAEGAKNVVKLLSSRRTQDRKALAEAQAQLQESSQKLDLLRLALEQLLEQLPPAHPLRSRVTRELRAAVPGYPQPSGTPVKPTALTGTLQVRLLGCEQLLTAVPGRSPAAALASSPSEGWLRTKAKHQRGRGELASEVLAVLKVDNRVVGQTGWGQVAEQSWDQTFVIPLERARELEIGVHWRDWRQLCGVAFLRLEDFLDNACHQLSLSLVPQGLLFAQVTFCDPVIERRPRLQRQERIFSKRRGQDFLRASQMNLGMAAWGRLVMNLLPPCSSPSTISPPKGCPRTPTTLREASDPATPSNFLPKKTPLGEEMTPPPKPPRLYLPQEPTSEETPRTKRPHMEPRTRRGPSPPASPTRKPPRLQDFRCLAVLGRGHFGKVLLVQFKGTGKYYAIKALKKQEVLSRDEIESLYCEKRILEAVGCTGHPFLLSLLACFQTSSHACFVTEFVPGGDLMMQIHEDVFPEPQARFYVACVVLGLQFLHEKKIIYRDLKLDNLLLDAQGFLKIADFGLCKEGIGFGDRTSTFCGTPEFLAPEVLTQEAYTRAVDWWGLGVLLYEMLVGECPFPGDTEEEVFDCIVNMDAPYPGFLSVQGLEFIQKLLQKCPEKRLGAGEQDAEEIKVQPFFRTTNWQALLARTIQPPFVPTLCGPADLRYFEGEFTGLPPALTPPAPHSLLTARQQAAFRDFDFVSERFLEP
Sequence of Uncharacterized aarF domain-containing protein kinase 5 (Q3MIX3 whole entry, the tested form may be a part): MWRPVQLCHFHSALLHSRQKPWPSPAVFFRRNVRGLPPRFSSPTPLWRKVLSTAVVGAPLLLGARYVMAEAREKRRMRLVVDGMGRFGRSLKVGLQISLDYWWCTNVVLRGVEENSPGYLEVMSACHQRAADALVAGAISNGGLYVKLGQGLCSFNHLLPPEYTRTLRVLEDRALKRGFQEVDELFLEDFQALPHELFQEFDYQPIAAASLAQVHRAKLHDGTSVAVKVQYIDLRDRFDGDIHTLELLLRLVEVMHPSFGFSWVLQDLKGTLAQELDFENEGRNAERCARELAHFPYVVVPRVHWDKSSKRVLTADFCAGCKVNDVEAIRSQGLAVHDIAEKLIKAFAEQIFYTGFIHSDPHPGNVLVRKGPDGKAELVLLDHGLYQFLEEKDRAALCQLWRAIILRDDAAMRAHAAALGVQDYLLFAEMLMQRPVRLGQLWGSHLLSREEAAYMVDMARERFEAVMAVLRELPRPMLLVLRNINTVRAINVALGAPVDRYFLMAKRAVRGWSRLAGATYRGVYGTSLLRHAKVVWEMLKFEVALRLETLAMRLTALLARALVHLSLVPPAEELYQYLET
Sequence of MAP kinase-activated protein kinase 3 (Q16644 whole entry): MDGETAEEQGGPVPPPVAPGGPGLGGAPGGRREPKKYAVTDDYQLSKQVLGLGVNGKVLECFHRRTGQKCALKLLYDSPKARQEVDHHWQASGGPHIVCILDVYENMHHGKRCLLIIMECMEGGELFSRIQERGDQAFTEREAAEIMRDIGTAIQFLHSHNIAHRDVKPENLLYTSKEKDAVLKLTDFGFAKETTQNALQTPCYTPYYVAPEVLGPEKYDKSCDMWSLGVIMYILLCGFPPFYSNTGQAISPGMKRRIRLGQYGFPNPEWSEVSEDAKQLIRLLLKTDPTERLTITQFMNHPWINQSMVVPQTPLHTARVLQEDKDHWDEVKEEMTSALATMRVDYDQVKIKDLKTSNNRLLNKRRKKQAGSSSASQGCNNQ
Sequence of Serine/threonine-protein kinase PLK1 (P53350 whole entry): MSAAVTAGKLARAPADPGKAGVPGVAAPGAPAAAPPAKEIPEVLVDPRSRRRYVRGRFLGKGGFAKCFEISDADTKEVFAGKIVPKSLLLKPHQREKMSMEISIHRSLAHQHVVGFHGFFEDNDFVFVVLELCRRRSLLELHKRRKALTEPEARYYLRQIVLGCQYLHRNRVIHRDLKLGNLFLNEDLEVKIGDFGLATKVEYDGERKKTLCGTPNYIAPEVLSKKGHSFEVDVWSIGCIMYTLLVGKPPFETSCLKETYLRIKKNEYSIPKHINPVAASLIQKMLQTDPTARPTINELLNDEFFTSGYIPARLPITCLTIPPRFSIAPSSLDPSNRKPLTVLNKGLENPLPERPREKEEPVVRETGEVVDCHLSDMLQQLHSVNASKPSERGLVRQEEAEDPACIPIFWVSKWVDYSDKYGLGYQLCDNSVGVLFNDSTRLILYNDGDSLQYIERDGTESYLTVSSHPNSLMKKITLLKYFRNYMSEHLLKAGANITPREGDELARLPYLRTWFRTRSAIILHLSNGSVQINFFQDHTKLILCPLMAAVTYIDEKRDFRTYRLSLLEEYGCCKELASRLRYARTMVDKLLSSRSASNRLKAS
Sequence of Dual specificity testis-specific protein kinase 2 (Q96S53 whole entry): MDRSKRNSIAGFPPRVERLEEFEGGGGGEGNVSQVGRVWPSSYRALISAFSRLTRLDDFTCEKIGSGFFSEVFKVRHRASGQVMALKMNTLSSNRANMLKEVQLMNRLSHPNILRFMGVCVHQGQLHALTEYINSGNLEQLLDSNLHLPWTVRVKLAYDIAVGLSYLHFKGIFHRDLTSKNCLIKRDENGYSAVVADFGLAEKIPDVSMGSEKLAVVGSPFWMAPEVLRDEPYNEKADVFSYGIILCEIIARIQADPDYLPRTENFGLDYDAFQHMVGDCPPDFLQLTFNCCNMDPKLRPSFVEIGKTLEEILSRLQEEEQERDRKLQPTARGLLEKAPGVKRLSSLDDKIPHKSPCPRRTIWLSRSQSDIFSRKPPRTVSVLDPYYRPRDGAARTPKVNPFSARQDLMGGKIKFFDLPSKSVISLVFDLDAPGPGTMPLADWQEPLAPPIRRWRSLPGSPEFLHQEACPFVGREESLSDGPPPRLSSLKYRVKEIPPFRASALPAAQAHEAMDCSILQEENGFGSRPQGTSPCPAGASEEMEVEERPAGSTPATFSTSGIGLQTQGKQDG

Row | Kd [1] | Kd [2] | Kd [3] | Kd [4] | Kd [5] | Kd [6] | Kd [7] | Kd [8] | Kd [9] | Kd [10] | Compound
1 | > 30 µM (inactive) | > 30 µM (inactive) | > 30 µM (inactive) | > 30 µM (inactive) | > 30 µM (inactive) | > 30 µM (inactive) | 0.013 µM | > 30 µM (inactive) | 0.018 µM |  | Cc1nc2cc(-c3nn(C(C)C)c4ncnc(N)c34)ccc2o1
2 | > 30 µM (inactive) | > 30 µM (inactive) | > 30 µM (inactive) |  | > 30 µM (inactive) | > 30 µM (inactive) | > 30 µM (inactive) | > 30 µM (inactive) |  |  | Cn1cnc2c(F)c(Nc3ccc(Br)cc3F)c(C(=O)NOCCO)cc21 [BINIMETINIB]
3 | > 30 µM (inactive) | > 30 µM (inactive) | > 30 µM (inactive) | > 30 µM (inactive) | > 30 µM (inactive) | > 30 µM (inactive) | > 30 µM (inactive) | > 30 µM (inactive) | > 30 µM (inactive) |  | COCC(=O)NC/C=C/c1ccc2ncnc(Nc3ccc(Oc4ccc(C)nc4)c(C)c3)c2c1 [CP-724714]
4 | > 30 µM (inactive) | > 30 µM (inactive) |  |  | > 30 µM (inactive) | > 30 µM (inactive) | > 30 µM (inactive) | > 30 µM (inactive) |  | > 30 µM (inactive) | C#Cc1cccc(Nc2ncnc3cc(OC)c(OCCCCCCC(=O)NO)cc23)c1 [CUDC-101]
5 | > 30 µM (inactive) | > 30 µM (inactive) | > 30 µM (inactive) | > 30 µM (inactive) | > 30 µM (inactive) | > 30 µM (inactive) | > 30 µM (inactive) |  | > 30 µM (inactive) |  | C[C@@H](Oc1cc(-n2cnc3ccc(CN4CCN(C)CC4)cc32)sc1C(N)=O)c1ccccc1C(F)(F)F [GSK-461364]
6 | > 30 µM (inactive) |  | > 30 µM (inactive) | > 30 µM (inactive) | > 30 µM (inactive) | > 30 µM (inactive) | > 30 µM (inactive) | > 30 µM (inactive) | > 30 µM (inactive) | > 30 µM (inactive) | Cc1cnc(NC(=O)Nc2cc(Br)c(C)cc2OC[C@@H]2CNCCO2)cn1 [RABUSERTIB]
7 | > 30 µM (inactive) |  | > 30 µM (inactive) | > 30 µM (inactive) | > 30 µM (inactive) | > 30 µM (inactive) | > 30 µM (inactive) | > 30 µM (inactive) |  | > 30 µM (inactive) | CO[C@H]1C[C@@H]2CC[C@@H](C)[C@@](O)(O2)C(=O)C(=O)N2CCCC[C@H]2C(=O)O[C@H]([C@H](C)C[C@@H]2CC[C@@H](OC(=O)C(C)(CO)CO)[C@H](OC)C2)CC(=O)[C@H](C)/C=C(\C)[C@@H](O)[C@@H](OC)C(=O)[C@H](C)C[C@H](C)/C=C/C=C/C=C/1C [TEMSIROLIMUS]
8 | > 30 µM (inactive) | > 30 µM (inactive) | > 30 µM (inactive) | > 30 µM (inactive) | 0.002 µM | > 30 µM (inactive) | > 30 µM (inactive) |  | > 30 µM (inactive) | > 30 µM (inactive) | COc1cc2c(Nc3ccc(Cl)c(Cl)c3F)ncnc2cc1OC[C@@H]1C[C@@H]2CN(C)C[C@@H]2C1 [TESEVATINIB]
9 | > 30 µM (inactive) |  | > 30 µM (inactive) | > 30 µM (inactive) | > 30 µM (inactive) | > 30 µM (inactive) | > 30 µM (inactive) | > 30 µM (inactive) |  |  | C[C@@H](N)c1ccc(C(=O)Nc2ccnc3[nH]ccc23)cc1 [Y-39983]

Row | Compound | Kd [1] | Kd [2] | Kd [3] | Kd [4] | Kd [5] | Kd [6] | Kd [7] | Kd [8] | Kd [9] | Kd [10]
10 | CC(C)(C)c1nc(-c2cccc(NS(=O)(=O)c3c(F)cccc3F)c2F)c(-c2ccnc(N)n2)s1 [DABRAFENIB] |  | > 30 µM (inactive) |  | > 30 µM (inactive) | > 30 µM (inactive) | > 30 µM (inactive) | > 30 µM (inactive) | > 30 µM (inactive) | > 30 µM (inactive) | > 30 µM (inactive)
11 | CNC(=O)c1cc(Oc2ccc(NC(=O)Nc3cc(C(C)(C)C)nn3-c3ccc4ncccc4c3)c(F)c2)ccn1 [REBASTINIB] |  | > 30 µM (inactive) |  |  | > 30 µM (inactive) | > 30 µM (inactive) | > 30 µM (inactive) | > 30 µM (inactive) | 0.002 µM | > 30 µM (inactive)
12 | Cc1cc(Nc2ncnc3ccc(NC4=NC(C)(C)CO4)cc23)ccc1Oc1ccn2ncnc2c1 [TUCATINIB] |  |  |  | > 30 µM (inactive) | > 30 µM (inactive) | > 30 µM (inactive) | > 30 µM (inactive) |  | > 30 µM (inactive) | 
